# Source: the NIST ThermoML archive (doi:10.1016/j.jct.2015.12.032)
# Numbers after ± are expanded uncertainties.
# Tests used:
# [1] = for mass density: 298.15 K, 101.33 kPa, Liquid, Pycnometric method
# [2] = Molar enthalpy of transition or fusion; conditions: Crystal; DSC
mass density [1],"Normal melting temperature ([1]; Crystal, DTA)",Molar enthalpy of transition or fusion [2],SMILES
777 ± 1.4 kg/m3,,,CC#N [acetonitrile]
802.4 ± 1.5 kg/m3,,,CCC(C)O (stereo not drawn) [butan-2-ol]
894.4 ± 1.6 kg/m3,,,CCOC(C)=O [ethyl acetate]
781.2 ± 1.4 kg/m3,,,CC(C)O [propan-2-ol]
,103.20 ± 1.1 °C,3.05 ± 0.0932 kcal/mol,"CNC(=O)NC [1,3-dimethylurea]"

SMILES,mass density [1],"Normal melting temperature ([1]; Crystal, DTA)",Molar enthalpy of transition or fusion [2]
CC(C)=O [acetone],785.1 ± 1.4 kg/m3,,
CCCCOC(C)=O [butyl ethanoate],875.8 ± 1.6 kg/m3,,
